Laboratory results taken from publication PMC12126322, “Characterisation of the thermophilic P450 CYP116B305 identified using metagenomics-derived sequence data from an Australian hot spring” (Applied Microbiology and Biotechnology, 2025).
One block for each compound: values may come before it.

Tests used:
CYP116B305 [1] = assay: Substrate binding by UV-visible difference spectroscopy (KD, heme spin-state shift); design: species or system Geminicoccaceae; conditions: for Kd: difference spectroscopy, CYP116B305 2–4 µM, substrate 0–100 µM; for Spin-state shift (%): low-spin to high-spin heme shift on substrate binding
CYP116B305 [2] = assay: NAD(P)H consumption assay (cofactor preference, oxidation rates); format: biochemical, Geminicoccaceae; conditions: for Km: cofactor oxidation in the presence of 2-HPA, read-out: KM of nicotinamide cofactor; for NADH consumption rates / NADPH consumption rates: 33% FMN inclusion, min^−1; for NADH consumption rates (100% FMN rates) / NADPH consumption rates (100% FMN rates): corresponding to full FMN incorporation, approximate maximum
Description: The consumption rates were calculated using nonlinear regression (GraphPad Prism), fitting to either the Michaelis–Menten or a quadratic velocity equation to determine the apparent KM and kcat values.

CYP116B305 [3] = assay: Cytochrome c reduction assay with NADPH as electron donor; format: biochemical, Geminicoccaceae; conditions: cytochrome c as artificial electron acceptor
Description: Similarly, a cytochrome c reduction assay was also performed to derive the kinetic parameters, following established protocols (Guengerich et al. [2009]; Tavanti et al. [2018b]). Reactions contained cytochrome c (equine heart, Sigma-Aldrich, 50 µM), CYP116B305 (200 nM), catalase (1 µM), and varying concentrations of NADPH (0.5–200 µM). Cytochrome c reduction was monitored as described above, and nonlinear regression analysis (GraphPad Prism) was utilised to determine the KM and kcat values.

CYP116B305 [4] = assay: In vitro catalytic turnovers and coupling efficiency (GC-MS); format: biochemical, Geminicoccaceae; conditions: for Coupling (NADPH): product formed to NADPH consumed
Description: The reaction mixtures contained CYP116B305 (1 µM) in KPi buffer (50 mM, pH 7.4), catalase (1 µM), substrate (600 µM), and NAD(P)H (1.2 mM). Reactions were conducted at both room temperature (25 °C) and elevated temperature (45 °C) under constant stirring for 1 h. A control reaction, omitting the P450 enzyme, was also performed. Post-incubation, reaction mixtures were acidified to pH 0–2 with HCl (except for 4-methoxyacetophenone assays), followed by extraction with ethyl acetate (3 × 1 mL). The combined organic phases were dried over magnesium sulphate and concentrated to 100 µL under a stream of nitrogen gas. Concentrated samples were derivatised with N,O-bis(trimethylsilyl)trifluoroacetamide (BSTFA-TMS) before being analysed by gas chromatography–mass spectrometry (GC–MS; Zebron ZB-5MS column 30 m × 0.25 mm × 0.25 µm). The method was 50 °C for 5 min followed by increments of 16 °C min^−1 until 250 °C was reached, then held for 5 min.
For coupling efficiency analysis, the NAD(P)H concentration was reduced to 200 µM, and an internal standard (100 µM) was added to the reactions prior to acidification and extraction. […] In the case of 4-methoxyacetophenone, the reactions were stirred for 2 h, and product formation (4-hydroxyacetophenone) was then quantified using a standard curve generated from 4-hydroxyacetophenone (0.05–1 mM) and an internal standard (fluorene; 100 µM).

[5] = in the presence of 2-HPA, 25 °C

Structure (SMILES): O=C(O)Cc1ccc(O)cc1 [4-Hydroxyphenylacetic acid]
Kd (CYP116B305 [1]): 65 ± 13 µM | Spin-state shift (%) (CYP116B305 [1]): 17 ± 1% | Spin-state shift (%) (CYP116B305 [1]; listed as 4-hydroxyphenylacetic acid): 17 ± 1%

Structure (SMILES): COc1ccc(C(C)=O)cc1 [4-Methoxyacetophenone]
Kd (CYP116B305 [1]): 73 ± 6 µM | Spin-state shift (%) (CYP116B305 [1]): 26 ± 3% | Spin-state shift (%) (CYP116B305 [1]; listed as 4-methoxyacetophenone): 26 ± 3% | NADH consumption rates (CYP116B305 [2]; 25 °C): 2 ± 1 µM (µM^−1 P450) min^−1 | NADH consumption rates (100% FMN rates) (CYP116B305 [2]; 25 °C): ~6 µM (µM^−1 P450) min^−1 | NADH consumption rates (CYP116B305 [2]; 45 °C): 3 ± 1 µM (µM^−1 P450) min^−1 | NADPH consumption rates (CYP116B305 [2]; 45 °C): 1 ± 1 µM (µM^−1 P450) min^−1 | NADH consumption rates (100% FMN rates) (CYP116B305 [2]; 45 °C): ~9 µM (µM^−1 P450) min^−1 | NADPH consumption rates (100% FMN rates) (CYP116B305 [2]; 45 °C): ~3 µM (µM^−1 P450) min^−1 | product formation with NADH as electron donor (CYP116B305 [4]; 4-hydroxyacetophenone product, NADH): no product was observed | Coupling (NADPH) (CYP116B305 [4]; 25 °C): n.q | Coupling (NADPH) (CYP116B305 [4]; 45 °C, listed as 4-Methoxy acetophenone): 24 ± 5% | Coupling (NADPH) (CYP116B305 [4]; 45 °C, listed as 4-methoxyacetophenone): 24 ± 5%

Structure (SMILES): O=C(O)CCc1ccccc1O [HPPA, 3-(2-hydroxyphenyl)propionic acid]
Kd (CYP116B305 [1]): 0.4 ± 0.2 µM | Spin-state shift (%) (CYP116B305 [1]): 90 ± 5% | Spin-state shift (%) (CYP116B305 [1]; listed as 3-(2-Hydroxyphenyl)propionic acid (HPPA)): 90 ± 5% | NADH consumption rates (CYP116B305 [2]; 25 °C): 31 ± 3 µM (µM^−1 P450) min^−1 | NADPH consumption rates (CYP116B305 [2]; 25 °C): 11 ± 1 µM (µM^−1 P450) min^−1 | NADPH consumption rates (100% FMN rates) (CYP116B305 [2]; 25 °C): ~33 µM (µM^−1 P450) min^−1 | fold increase of NADH oxidation rate (CYP116B305 [2]; 45 °C compared to 25 °C): 2.4 fold | fold increase of NADPH oxidation rate (CYP116B305 [2]; 45 °C compared to 25 °C): sixfold | NADH consumption rates (CYP116B305 [2]; 45 °C): 73 ± 2 µM (µM^−1 P450) min^−1 | NADPH consumption rates (CYP116B305 [2]; 45 °C): 65 ± 3 µM (µM^−1 P450) min^−1 | NADH consumption rates (100% FMN rates) (CYP116B305 [2]; 45 °C): ~221 µM (µM^−1 P450) min^−1 | NADPH consumption rates (100% FMN rates) (CYP116B305 [2]; 45 °C): ~196 µM (µM^−1 P450) min^−1 | Coupling (NADPH) (CYP116B305 [4]; 25 °C): 15 ± 2% | Coupling (NADH) (CYP116B305 [4]; 45 °C, product formed to NADH consumed): 15 ± 9% | Coupling (NADPH) (CYP116B305 [4]; 45 °C): 26 ± 1%

Structure (SMILES): O=C(O)Cc1ccccc1 [Phenylacetic acid]
Kd (CYP116B305 [1]): 39 ± 11 µM | Spin-state shift (%) (CYP116B305 [1]): 34 ± 6% | Spin-state shift (%) (CYP116B305 [1]; listed as phenylacetic acid): 34 ± 6%

Second part, led by results:

Kd (CYP116B305 [1]): 43 ± 6 µM | Spin-state shift (%) (CYP116B305 [1]): 25 ± 2% | Spin-state shift (%) (CYP116B305 [1]; listed as salicylic acid): 25 ± 2%
Structure (SMILES): O=C(O)c1ccccc1O [Salicylic acid]

Km (CYP116B305 [2]; 25 °C): 4.1 ± 0.3 µM | fold lower KM compared to NADH (CYP116B305 [2]; [5]): 15 fold | Km (CYP116B305 [3]): 1.2 ± 0.1 µM
Structure (SMILES): NC(=O)C1=CN([C@@H]2O[C@H](COP(=O)(O)OP(=O)(O)OC[C@H]3O[C@@H](n4cnc5c(N)ncnc54)[C@H](OP(=O)(O)O)[C@@H]3O)[C@@H](O)[C@H]2O)C=CC1 [NADPH, reference compound]
kcat of nicotinamide cofactor oxidation (CYP116B305 [2]; [5]): 0.217 ± 0.017 s⁻¹ | kcat for NADPH (CYP116B305 [3]): 0.0683 ± 0.0017 s⁻¹

Kd (CYP116B305 [1]): 61 ± 19 µM | Spin-state shift (%) (CYP116B305 [1]): 13 ± 4% | Spin-state shift (%) (CYP116B305 [1]; listed as trans-cinnamic acid): 13 ± 4%
Structure (SMILES): O=C(O)/C=C/c1ccccc1 [trans-Cinnamic acid]

Km (CYP116B305 [2]; 25 °C): 60 ± 15 µM
Structure (SMILES): NC(=O)C1=CN([C@@H]2O[C@H](COP(=O)(O)OP(=O)(O)OC[C@H]3O[C@@H](n4cnc5c(N)ncnc54)[C@H](O)[C@@H]3O)[C@@H](O)[C@H]2O)C=CC1 [NADH, reference compound]
kcat of nicotinamide cofactor oxidation (CYP116B305 [2]; [5]): 0.65 ± 0.067 s⁻¹
